Data set [1] deals with Leucyl-cystinyl aminopeptidase (Homo sapiens, UniProt Q9UIQ6). As to the kind of experiment: Inhibition of IRAP (unknown origin) expressed in HEK 293S GnTI(-) cells by in vitro fluorimetric assay. The class given is cell-based.
The target of data set [2] is T1, Leucyl-cystinyl aminopeptidase (Mus musculus) (UniProt Q8C129).
T1 sequence (whole entry): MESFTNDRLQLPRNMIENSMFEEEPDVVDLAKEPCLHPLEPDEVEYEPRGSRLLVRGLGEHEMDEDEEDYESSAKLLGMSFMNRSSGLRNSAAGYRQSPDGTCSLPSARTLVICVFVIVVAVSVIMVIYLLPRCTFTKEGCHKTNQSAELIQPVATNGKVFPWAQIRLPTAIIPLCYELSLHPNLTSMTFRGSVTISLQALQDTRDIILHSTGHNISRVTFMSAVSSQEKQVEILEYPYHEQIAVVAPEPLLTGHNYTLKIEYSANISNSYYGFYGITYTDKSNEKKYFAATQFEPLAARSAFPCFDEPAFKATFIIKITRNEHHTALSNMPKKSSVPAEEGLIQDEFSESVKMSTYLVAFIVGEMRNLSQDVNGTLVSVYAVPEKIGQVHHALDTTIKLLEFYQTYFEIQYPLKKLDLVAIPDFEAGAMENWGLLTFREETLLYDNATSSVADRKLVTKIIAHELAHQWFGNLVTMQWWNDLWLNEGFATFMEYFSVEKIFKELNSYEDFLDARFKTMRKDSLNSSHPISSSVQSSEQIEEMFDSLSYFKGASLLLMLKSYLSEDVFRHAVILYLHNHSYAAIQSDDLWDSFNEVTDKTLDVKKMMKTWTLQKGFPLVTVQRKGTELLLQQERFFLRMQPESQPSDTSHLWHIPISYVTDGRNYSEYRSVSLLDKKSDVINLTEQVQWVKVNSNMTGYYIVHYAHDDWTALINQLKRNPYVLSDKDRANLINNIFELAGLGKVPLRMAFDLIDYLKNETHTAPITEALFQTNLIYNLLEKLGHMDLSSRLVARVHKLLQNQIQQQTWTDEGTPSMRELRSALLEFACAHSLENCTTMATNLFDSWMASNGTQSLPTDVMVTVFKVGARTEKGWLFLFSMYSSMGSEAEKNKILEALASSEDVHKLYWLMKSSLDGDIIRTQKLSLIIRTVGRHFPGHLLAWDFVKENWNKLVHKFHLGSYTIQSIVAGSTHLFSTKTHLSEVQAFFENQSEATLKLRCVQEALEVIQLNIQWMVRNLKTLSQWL
Description: Inhibition of IRAP in C57Bl/6 mouse CD8 alpha-positive cells assessed as reduction of IRAP-dependent cross-presentation activity by measuring IL2 level in CD8+ T-cells isolated from lymph nodes of Rag-1-/- C57Bl/6 OT-I mouse at 3 to 3333 nM pre-incubated for 60 mins followed by addition of ovalbumin measured after 6 hrs by sandwich ELISA.

The target in data set [3] is T1, Leucyl-cystinyl aminopeptidase (Mus musculus). As to the kind of experiment: Inhibition of IRAP in C57Bl/6 mouse CD11b-positive dendritic cells assessed as reduction of IRAP-dependent cross-presentation activity by measuring IL2 level in CD8+ T-cells isolated from lymph nodes of Rag-1-/- C57Bl/6 OT-I mouse at 3 to 3333 nM pre-incubated for 60 mins followed by addition of ovalbumin measured after 6 hrs by sandwich ELISA.

A short description of data set [4]: Effect on cross-presentation activity of IRAP-/- knockdown C57Bl/6 mouse […] assessed as IL2 level in CD8+ T-cells isolated from lymph nodes of Rag-1-/- C57Bl/6 OT-I mouse at 3 to 1000 nmol/L pre-incubated for 60 mins followed by addition of ovalbumin measured after 6 hrs by sandwich ELISA assay. The class given is ADME, cell-based.
Data set [5] in a line: Effect on cross-presentation activity of IRAP-/- knockdown C57Bl/6 mouse CD11b-positive dendritic cells assessed as IL2 level in CD8+ T-cells isolated from lymph nodes of Rag-1-/- C57Bl/6 OT-I mouse at 3 to 1000 nmol/L pre-incubated for 60 mins followed by addition of ovalbumin measured after 6 hrs by sandwich ELISA assay. The conditions noted are these: cd11b-positive dendritic cell. The format is ADME, cell-based.

Data set [6] is described as follows: Effect on cross-presentation activity of IRAP-/- knockdown C57Bl/6 mouse CD11b-positive dendritic cells assessed as IL2 level in CD8+ T-cells isolated from lymph nodes of Rag-1-/- C57Bl/6 OT-I mouse at 3.3 uM pre-incubated for 60 mins followed by addition of ovalbumin measured after 6 hrs by sandwich ELISA assay. The conditions noted are these: cd11b-positive dendritic cell. The format is ADME, cell-based.

Data set [7] can be described thus: Effect on cross-presentation activity of IRAP-/- knockdown C57Bl/6 mouse CD8alpha-positive dendritic cells assessed as IL2 level in CD8+ T-cells isolated from lymph nodes of Rag-1-/- C57Bl/6 OT-I mouse at 3.3 uM pre-incubated for 60 mins followed by addition of ovalbumin measured after 6 hrs by sandwich ELISA assay. To be noted: cd8alpha-positive dendritic cell.
The target in data set [8] is Endoplasmic reticulum aminopeptidase 1 (Homo sapiens, UniProt Q9NZ08). As to the kind of experiment: Inhibition of ERAP1 (unknown origin) expressed in Hi5 cells by in vitro fluorimetric assay.

Structures are written as SMILES.

Endoplasmic reticulum aminopeptidase 1, sequence (Q9NZ08 whole entry): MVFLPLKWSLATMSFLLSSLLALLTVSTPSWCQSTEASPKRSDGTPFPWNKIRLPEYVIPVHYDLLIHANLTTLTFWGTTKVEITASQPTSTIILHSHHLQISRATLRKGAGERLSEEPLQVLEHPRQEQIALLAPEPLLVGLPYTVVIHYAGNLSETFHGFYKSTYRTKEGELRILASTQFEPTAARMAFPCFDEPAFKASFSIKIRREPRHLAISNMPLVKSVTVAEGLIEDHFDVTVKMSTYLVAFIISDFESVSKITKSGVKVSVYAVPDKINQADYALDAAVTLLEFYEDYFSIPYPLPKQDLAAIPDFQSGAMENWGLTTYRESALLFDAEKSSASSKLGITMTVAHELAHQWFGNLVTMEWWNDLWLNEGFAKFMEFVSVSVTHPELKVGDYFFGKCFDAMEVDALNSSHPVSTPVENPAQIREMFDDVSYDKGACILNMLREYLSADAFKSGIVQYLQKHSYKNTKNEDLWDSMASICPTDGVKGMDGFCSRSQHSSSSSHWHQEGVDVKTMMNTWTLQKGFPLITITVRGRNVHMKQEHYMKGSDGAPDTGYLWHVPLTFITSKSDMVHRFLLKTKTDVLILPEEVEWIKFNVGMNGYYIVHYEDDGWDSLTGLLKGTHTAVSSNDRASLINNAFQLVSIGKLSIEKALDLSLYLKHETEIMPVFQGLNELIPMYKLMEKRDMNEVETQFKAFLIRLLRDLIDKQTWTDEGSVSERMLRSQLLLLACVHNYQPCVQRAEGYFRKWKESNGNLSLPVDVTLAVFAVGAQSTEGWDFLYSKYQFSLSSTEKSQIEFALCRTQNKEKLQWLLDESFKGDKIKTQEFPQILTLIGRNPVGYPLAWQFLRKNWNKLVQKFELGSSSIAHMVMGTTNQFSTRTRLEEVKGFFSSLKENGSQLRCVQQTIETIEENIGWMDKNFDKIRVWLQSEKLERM
Leucyl-cystinyl aminopeptidase, sequence (Q9UIQ6 whole entry): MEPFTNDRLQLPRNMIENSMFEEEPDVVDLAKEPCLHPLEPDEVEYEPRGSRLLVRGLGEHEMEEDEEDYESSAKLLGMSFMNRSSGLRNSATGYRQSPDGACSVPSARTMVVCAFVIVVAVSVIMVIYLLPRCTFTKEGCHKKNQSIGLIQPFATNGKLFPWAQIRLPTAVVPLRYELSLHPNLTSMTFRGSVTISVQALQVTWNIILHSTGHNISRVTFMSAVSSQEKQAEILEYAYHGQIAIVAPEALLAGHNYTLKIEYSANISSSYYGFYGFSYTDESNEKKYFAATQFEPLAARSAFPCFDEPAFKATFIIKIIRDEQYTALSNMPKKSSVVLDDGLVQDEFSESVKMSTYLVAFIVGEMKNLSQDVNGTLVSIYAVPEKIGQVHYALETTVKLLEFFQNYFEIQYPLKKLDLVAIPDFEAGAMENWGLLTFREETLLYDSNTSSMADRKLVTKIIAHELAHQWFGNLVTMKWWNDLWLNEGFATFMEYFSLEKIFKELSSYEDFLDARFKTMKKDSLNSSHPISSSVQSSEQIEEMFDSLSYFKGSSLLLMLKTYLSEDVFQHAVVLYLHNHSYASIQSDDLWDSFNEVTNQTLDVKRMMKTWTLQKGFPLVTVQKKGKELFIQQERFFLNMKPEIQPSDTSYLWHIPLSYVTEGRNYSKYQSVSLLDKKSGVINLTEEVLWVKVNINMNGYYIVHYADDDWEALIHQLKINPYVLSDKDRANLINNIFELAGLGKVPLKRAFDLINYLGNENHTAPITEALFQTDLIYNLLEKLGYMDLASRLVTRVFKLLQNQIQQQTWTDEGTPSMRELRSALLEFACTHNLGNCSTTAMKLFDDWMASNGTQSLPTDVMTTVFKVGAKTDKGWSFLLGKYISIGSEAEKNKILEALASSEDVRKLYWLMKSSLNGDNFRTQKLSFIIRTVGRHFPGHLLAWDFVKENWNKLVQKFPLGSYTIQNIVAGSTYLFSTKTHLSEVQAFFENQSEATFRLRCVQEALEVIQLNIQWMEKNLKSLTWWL

For `C#CC[C@H](CP(=O)(O)[C@@H](N)CCc1ccccc1)C(=O)N[C@@H](Cc1ccccc1)C(N)=O`, it took 2 nM to reach half-maximal inhibition in data set [1] (IC50).

With `NC(=O)[C@H](Cc1ccccc1)NC(=O)[C@H](CC(c1ccccc1)c1ccccc1)CP(=O)(O)[C@@H](N)CCc1ccccc1`, the inhibition result in data set [2] and in data set [3] was “Dose-dependent effect” each time. Moreover, the Activity entry in data set [4] was “Non-Toxic”; in data set [5], “Non-Toxic”; in data set [6], “Toxic”; in data set [7], “Toxic”.

`NC(=O)[C@H](Cc1ccccc1)NC(=O)[C@@H](Cc1cc(-c2ccccc2)cc(-c2ccccc2)c1)CP(=O)(O)[C@@H](N)CCc1ccccc1` gave an IC50 in data set [8] greater than 100 µM.

For the compound `NC(=O)[C@H](Cc1ccccc1)NC(=O)[C@H](Cc1cc(-c2ccccc2)cc(-c2ccccc2)c1)CP(=O)(O)[C@@H](N)CCc1ccccc1`, the IC50 in data set [8] was greater than 35 µM.

The values above are taken from ChEMBL document CHEMBL4024701, “Optimization and Structure-Activity Relationships of Phosphinic Pseudotripeptide Inhibitors of Aminopeptidases That Generate Antigenic Peptides” (J Med Chem, 2016).
